Measurements as given in patent US11576380B2 (priority 2017, dated 2023).
Read-outs that look alike come from different tables or passages of the source.

Columns and labels:
Pyricularia oryzae = assay: microbe, parasite or virus in culture; assay type: cell-based; settings: for benzovindiflupyr (B) inhibition (%): Table 1; for benzovindiflupyr (B) inhibition (%) / azoxystrobin (B) inhibition (%): 72 hours; for azoxystrobin (B) inhibition (%): Table 2
Mycosphaerella arachidis = assay: Liquid culture test in well plates, Mycosphaerella arachidis syn. Cercospora arachidicola (peanut brown leaf spot), Example 6; assay type: cell-based; settings: Table 4, approximately 5-6 days
Protocol: The compositions according to the invention are tested for their biological (fungicidal) activity as dimethylsulfoxide (DMSO) solutions using one or more of the following protocols (Examples 2 to 8). A standard description of the liquid culture tests is provided in Example 1.
Mycelia fragments or conidia suspensions of a fungus, prepared either freshly from liquid cultures of the fungus or from cryogenic storage, are directly mixed into nutrient broth. DMSO solutions of the test compound (max. 10 mg/mL) is diluted with 0.025% Tween20 by factor 50 and 10 μL of this solution is pipetted into a microtiter plate (96-well format). The nutrient broth containing the fungal spores/mycelia fragments is then added to give an end concentration of the tested compound. The test plates are incubated in the dark at 24° C. and 96% relative humidity (rh). The inhibition of fungal growth is determined photometrically and visually after 3-7 days, depending on the pathosystem, and percent antifungal activity relative to the untreated check is calculated.
Conidia of the fungus from cryogenic storage were directly mixed into nutrient broth (PDB potato dextrose broth). After placing a DMSO solution of the test compositions into a microtiter plate (96-well format), the nutrient broth containing the fungal spores was added. The test plates were incubated at 24° C. and the inhibition of growth was determined photometrically after approximately 5-6 days.

Cn1cc(C(=O)Nc2cccc3c2[C@@H]2CC[C@H]3C2=C(Cl)Cl)c(C(F)F)n1 (racemic) [benzovindiflupyr]
benzovindiflupyr (B) inhibition (%) (Pyricularia oryzae; benzovindiflupyr alone 0.0125 ppm): 20%
benzovindiflupyr (B) inhibition (%) (Pyricularia oryzae; benzovindiflupyr alone 0.0250 ppm): 50%
benzovindiflupyr (B) inhibition (%) (Pyricularia oryzae; benzovindiflupyr alone 0.0500 ppm): 70%
benzovindiflupyr (B) inhibition (%) (Pyricularia oryzae; benzovindiflupyr alone 0.1000 ppm): 90%

CO/C=C(/C(=O)OC)c1ccccc1Oc1cc(Oc2ccccc2C#N)ncn1 [azoxystrobin]
azoxystrobin (B) inhibition (%) (Pyricularia oryzae; azoxystrobin alone 0.0250 ppm): 0%
azoxystrobin (B) inhibition (%) (Pyricularia oryzae; azoxystrobin alone 0.0500 ppm): 0%
azoxystrobin (B) inhibition (%) (Pyricularia oryzae; azoxystrobin alone 0.1000 ppm): 0%
azoxystrobin (B) inhibition (%) (Pyricularia oryzae; azoxystrobin alone 0.2000 ppm): 0%

N#Cc1c(Cl)c(Cl)c(Cl)c(C#N)c1Cl [chlorothalonil]
inhibition at 0.25 ppm (Pyricularia oryzae; Pyricularia oryzae, 72 h, read-out: chlorothalonil (B) inhibition (%), Table 3, chlorothalonil alone 0.2500 ppm): 0%
inhibition at 0.5 ppm (Pyricularia oryzae; Pyricularia oryzae, 72 h, read-out: chlorothalonil (B) inhibition (%), Table 3, chlorothalonil alone 0.5000 ppm): 0%
inhibition at 1 ppm (Pyricularia oryzae; Pyricularia oryzae, 72 h, read-out: chlorothalonil (B) inhibition (%), Table 3, chlorothalonil alone 1.0000 ppm): 20%

COc1ccnc(C(=O)N[C@@H](C)C(=O)O[C@@H](C)C(c2ccc(F)cc2)c2ccc(F)cc2)c1OC(C)=O [florylpicoxamid, (1S)-2,2-bis(4-fluorophenyl)-1-methylethyl N-{[3-(acetyloxy)-4-methoxy-2-pyridyl]carbonyl}-L-alaninate]
inhibition at 0.0031 ppm (Pyricularia oryzae; Pyricularia oryzae, 72 h, read-out: florylpicoxamid (A) inhibition (%), Table 1, florylpicoxamid alone 0.0031 ppm): 0%
inhibition at 0.0063 ppm (Pyricularia oryzae; Pyricularia oryzae, 72 h, read-out: florylpicoxamid (A) inhibition (%), Table 1, florylpicoxamid alone 0.0063 ppm): 0%
inhibition at 0.0125 ppm (Pyricularia oryzae; Pyricularia oryzae, 72 h, read-out: florylpicoxamid (A) inhibition (%), Table 1, florylpicoxamid alone 0.0125 ppm): 0%
inhibition at 0.025 ppm (Pyricularia oryzae; Pyricularia oryzae, 72 h, read-out: florylpicoxamid (A) inhibition (%), Table 1, florylpicoxamid alone 0.0250 ppm): 0%
inhibition at 0.05 ppm (Pyricularia oryzae; Pyricularia oryzae, 72 h, read-out: florylpicoxamid (A) inhibition (%), Table 1, florylpicoxamid alone 0.0500 ppm): 0%
inhibition at 0.1 ppm (Pyricularia oryzae; Pyricularia oryzae, 72 h, read-out: florylpicoxamid (A) inhibition (%), Table 1, florylpicoxamid alone 0.1000 ppm): 20%
inhibition at 0.1 ppm (Pyricularia oryzae; Pyricularia oryzae, 72 h, read-out: florylpicoxamid (A) inhibition (%), Table 2, florylpicoxamid alone 0.1000 ppm): 20%
inhibition at 0.2 ppm (Pyricularia oryzae; Pyricularia oryzae, 72 h, read-out: florylpicoxamid (A) inhibition (%), Table 2, florylpicoxamid alone 0.2000 ppm): 50%
inhibition at 0.025 ppm (Pyricularia oryzae; Pyricularia oryzae, 72 h, read-out: florylpicoxamid (A) inhibition (%), Table 3, florylpicoxamid alone 0.0250 ppm): 0%
inhibition at 0.05 ppm (Pyricularia oryzae; Pyricularia oryzae, 72 h, read-out: florylpicoxamid (A) inhibition (%), Table 3, florylpicoxamid alone 0.0500 ppm): 20%
inhibition at 0.1 ppm (Pyricularia oryzae; Pyricularia oryzae, 72 h, read-out: florylpicoxamid (A) inhibition (%), Table 3, florylpicoxamid alone 0.1000 ppm): 30%
inhibition at 0.2 ppm (Pyricularia oryzae; Pyricularia oryzae, 72 h, read-out: florylpicoxamid (A) inhibition (%), Table 3, florylpicoxamid alone 0.2000 ppm): 60%
inhibition at 0.025 ppm (Mycosphaerella arachidis; Mycosphaerella arachidis, florylpicoxamid alone 0.0250 ppm): 4%
inhibition at 0.05 ppm (Mycosphaerella arachidis; Mycosphaerella arachidis, florylpicoxamid alone 0.0500 ppm): 15%
inhibition at 0.1 ppm (Mycosphaerella arachidis; Mycosphaerella arachidis, florylpicoxamid alone 0.1000 ppm): 38%

CON(C(=O)c1cn(C)nc1C(F)F)C(C)Cc1c(Cl)cc(Cl)cc1Cl (stereo not drawn) [pydiflumetofen]
pydiflumetofen (B) inhibition (%) (Mycosphaerella arachidis; pydiflumetofen alone 0.0025 ppm): 1%
pydiflumetofen (B) inhibition (%) (Mycosphaerella arachidis; pydiflumetofen alone 0.0050 ppm): 0%
pydiflumetofen (B) inhibition (%) (Mycosphaerella arachidis; pydiflumetofen alone 0.0100 ppm): 28%
pydiflumetofen (B) inhibition (%) (Mycosphaerella arachidis; pydiflumetofen alone 0.0200 ppm): 70%
